Data: patent US10428082B2, “Triazole derivatives of melampomagnolide B and methods of use thereof” (BioVentures, LLC, priority 2016, dated 2019)

Key:
Experiment in all cases: NCI 60 growth inhibition
Assay type in all cases: cell-based, human
SK-MEL-5 = settings: SK-MEL-5, Melanoma
Description: (§1) The above triazole derivatives of melampomagnolide B were evaluated for growth inhibitory properties against an NCI panel of 60 human cancer cell lines derived from nine human cancer cell types, grouped into disease sub-panels that represent leukemia, lung, colon, central nervous system (CNS), melanoma, renal, ovary, breast, and prostate cancer cells. Growth inhibitory (GI50) effects were measured as a function of the variation of optical density as a percentage of control.

MCF7 = settings: MCF7, Breast Cancer
Description: as §1

HCT-15 = settings: HCT-15, Colon Cancer
Description: as §1

NCI-H460 = settings: NCI-H460, Non-Small Cell Lung Cancer
Description: as §1

A498 = settings: A498, Renal Cancer
Description: as §1

SF-295 = settings: SF-295, CNS Cancer
Description: as §1

786-0 = settings: 786-0, Renal Cancer
Description: as §1

NCI/ADR-RES = settings: Ovarian Cancer
Description: as §1

HOP-62 = settings: HOP-62, Non-Small Cell Lung Cancer
Description: as §1

OVCAR-3 = settings: OVCAR-3, Ovarian Cancer
Description: as §1

M14 = settings: M14, Melanoma
Description: as §1

CAKI-1 = settings: CAKI-1, Renal Cancer
Description: as §1

KM12 = settings: KM12, Colon Cancer
Description: as §1

LOX IMVI = settings: Melanoma
Description: as §1

SR = settings: Leukemia
Description: as §1

HL-60(TB) = settings: Leukemia
Description: as §1

HOP-92 = settings: HOP-92, Non-Small Cell Lung Cancer
Description: as §1

TK-10 = settings: TK-10, Renal Cancer
Description: as §1

A549/ATCC = settings: Non-Small Cell Lung Cancer
Description: as §1

SK-MEL-2 = settings: SK-MEL-2, Melanoma
Description: as §1

HCT-116 = settings: HCT-116, Colon Cancer
Description: as §1

EKVX = settings: Non-Small Cell Lung Cancer
Description: as §1

OVCAR-8 = settings: OVCAR-8, Ovarian Cancer
Description: as §1

HS 578T = settings: Breast Cancer
Description: as §1

NCI-H522 = settings: NCI-H522, Non-Small Cell Lung Cancer
Description: as §1

T-47D = settings: Breast Cancer
Description: as §1

HCC-2998 = settings: HCC-2998, Colon Cancer
Description: as §1

NCI-H226 = settings: NCI-H226, Non-Small Cell Lung Cancer
Description: as §1

U251 = settings: U251, CNS Cancer
Description: as §1

IGROV1 = settings: IGROV1, Ovarian Cancer
Description: as §1

COLO 205 = settings: COLO 205, Colon Cancer
Description: as §1

NCI-H322M = settings: Non-Small Cell Lung Cancer
Description: as §1

RPMI-8226 = settings: RPMI-8226, Leukemia
Description: as §1

UO-31 = settings: UO-31, Renal Cancer
Description: as §1

SN12C = settings: Renal Cancer
Description: as §1

PC-3 = settings: PC-3, Prostate Cancer
Description: as §1

OVCAR-4 = settings: OVCAR-4, Ovarian Cancer
Description: as §1

DU-145 = settings: DU-145, Prostate Cancer
Description: as §1

C=C1C(=O)O[C@H]2[C@H]1CC/C(Cn1cc(CCC)nn1)=C\CC[C@@]1(C)O[C@@H]21 [JVM 4-16, (1aR,7aS,10aS,10bS,E)-1a-Methyl-8-methylene-5((4-propyl-1H-1,2,3-triazol-1-yl)methyl)-2,3,6,7,7a,8,10a,10b-octahydrooxireno[2′,3′:9,10]cyclodeca[1,2-b]furan-9(1aH)-one]
GI50 (SK-MEL-5; Homo sapiens, Table 2): 15300 nM | GI50 (MCF7; Homo sapiens, Table 2): 3350 nM | GI50 (HCT-15; Homo sapiens, Table 2): 2900 nM | GI50 (NCI-H460; Homo sapiens, Table 2): 21200 nM | GI50 (A498; Homo sapiens, Table 2): 21500 nM | GI50 (SF-295; Homo sapiens, Table 2): 18500 nM | GI50 (786-0; Homo sapiens, Table 2): 11300 nM | GI50 (NCI/ADR-RES; Homo sapiens, Table 2): 15200 nM | GI50 (HOP-62; Homo sapiens, Table 2): 14100 nM | GI50 (OVCAR-3; Homo sapiens, Table 2): 3960 nM | GI50 (M14; Homo sapiens, Table 2): 3990 nM | GI50 (CAKI-1; Homo sapiens, Table 2): 3910 nM | GI50 (KM12; Homo sapiens, Table 2): 17600 nM | GI50 (LOX IMVI; Homo sapiens, Table 2): 3910 nM | GI50 (SR; Homo sapiens, Table 2): 2880 nM | GI50 (HL-60(TB); Homo sapiens, HL-60(TB), Table 2): 3530 nM | GI50 (HOP-92; Homo sapiens, Table 2): 2940 nM | GI50 (TK-10; Homo sapiens, Table 2): 3860 nM | GI50 (A549/ATCC; Homo sapiens, Table 2): 22300 nM | GI50 (SK-MEL-2; Homo sapiens, Table 2): 16300 nM | GI50 (HCT-116; Homo sapiens, Table 2): 3980 nM | GI50 (EKVX; Homo sapiens, Table 2): 11500 nM | GI50 (OVCAR-8; Homo sapiens, Table 2): 13500 nM | GI50 (HS 578T; Homo sapiens, Table 2): 23400 nM | GI50 (NCI-H522; Homo sapiens, Table 2): 3060 nM | GI50 (T-47D; Homo sapiens, T47D, Table 2): 4110 nM | GI50 (HCC-2998; Homo sapiens, Table 2): 15100 nM | GI50 (NCI-H226; Homo sapiens, Table 2): 12600 nM | GI50 (U251; Homo sapiens, U-251, Table 2): 14100 nM | GI50 (IGROV1; Homo sapiens, IGROV-1, Table 2): 4630 nM | GI50 (COLO 205; Homo sapiens, Table 2): 5220 nM | GI50 (NCI-H322M; Homo sapiens, Table 2): 21500 nM | GI50 (RPMI-8226; Homo sapiens, Table 2): 5520 nM | GI50 (UO-31; Homo sapiens, Table 2): 11100 nM | GI50 (SN12C; Homo sapiens, Table 2): 12100 nM | GI50 (PC-3; Homo sapiens, Table 2): 14900 nM | GI50 (OVCAR-4; Homo sapiens, Table 2): 9460 nM | GI50 (DU-145; Homo sapiens, Table 2): 4320 nM

C=C1C(=O)O[C@H]2[C@H]1CC/C(Cn1cc(-c3ccc(N)cc3)nn1)=C\CC[C@@]1(C)O[C@@H]21 [JVM 4-58]
GI50 (SK-MEL-5; Table 3): 3470 nM | GI50 (MCF7; Table 3): 2410 nM | GI50 (HCT-15; Table 3): 1420 nM | GI50 (NCI-H460; Table 3): 10400 nM | GI50 (A498; Table 3): 10400 nM | GI50 (SF-295; Table 3): 12100 nM | GI50 (786-0; Table 3): 1980 nM | GI50 (NCI/ADR-RES; Table 3): 14500 nM | GI50 (HOP-62; Table 3): 10200 nM | GI50 (OVCAR-3; Table 3): 1620 nM | GI50 (M14; Table 3): 2970 nM | GI50 (CAKI-1; Table 3): 1770 nM | GI50 (KM12; Table 3): 11400 nM | GI50 (LOX IMVI; Table 3): 1510 nM | GI50 (SR; Table 3): 700 nM | GI50 (HL-60(TB); HL-60 (TB), Table 3): 2230 nM | GI50 (HOP-92; Table 3): 2130 nM | GI50 (TK-10; Table 3): 2250 nM | GI50 (A549/ATCC; Table 3): 11900 nM | GI50 (SK-MEL-2; Table 3): 10600 nM | GI50 (HCT-116; Table 3): 1550 nM | GI50 (EKVX; Table 3): 3890 nM | GI50 (OVCAR-8; Table 3): 3040 nM | GI50 (HS 578T; Table 3): 4460 nM | GI50 (NCI-H522; Table 3): 1370 nM | GI50 (T-47D; Table 3): 2230 nM | GI50 (HCC-2998; Table 3): 3490 nM | GI50 (NCI-H226; Table 3): 3340 nM | GI50 (U251; Table 3): 4160 nM | GI50 (IGROV1; Table 3): 2960 nM | GI50 (COLO 205; Table 3): 1790 nM | GI50 (NCI-H322M; Table 3): 12600 nM | GI50 (RPMI-8226; Table 3): 2750 nM | GI50 (UO-31; Table 3): 1870 nM | GI50 (SN12C; Table 3): 3480 nM | GI50 (PC-3; Table 3): 10100 nM | GI50 (OVCAR-4; Table 3): 4900 nM | GI50 (DU-145; Table 3): 3650 nM

C=C1C(=O)O[C@H]2[C@H]1CC/C(Cn1cc(-c3ccccc3C(F)(F)F)nn1)=C\CC[C@@]1(C)O[C@@H]21 [JVM 4-59]
GI50 (SK-MEL-5; Table 3): 1720 nM | GI50 (MCF7; Table 3): 1330 nM | GI50 (HCT-15; Table 3): 1050 nM | GI50 (NCI-H460; Table 3): 3970 nM | GI50 (A498; Table 3): 3860 nM | GI50 (SF-295; Table 3): 10300 nM | GI50 (786-0; Table 3): 1840 nM | GI50 (NCI/ADR-RES; Table 3): 2990 nM | GI50 (HOP-62; Table 3): 4730 nM | GI50 (OVCAR-3; Table 3): 1040 nM | GI50 (M14; Table 3): 2150 nM | GI50 (CAKI-1; Table 3): 1310 nM | GI50 (KM12; Table 3): 5880 nM | GI50 (LOX IMVI; Table 3): 1110 nM | GI50 (HL-60(TB); HL-60 (TB), Table 3): 2580 nM | GI50 (HOP-92; Table 3): 1480 nM | GI50 (TK-10; Table 3): 1710 nM | GI50 (A549/ATCC; Table 3): 7230 nM | GI50 (SK-MEL-2; Table 3): 2450 nM | GI50 (HCT-116; Table 3): 1260 nM | GI50 (EKVX; Table 3): 2320 nM | GI50 (OVCAR-8; Table 3): 2230 nM | GI50 (HS 578T; Table 3): 3570 nM | GI50 (NCI-H522; Table 3): 1380 nM | GI50 (T-47D; Table 3): 1700 nM | GI50 (HCC-2998; Table 3): 1850 nM | GI50 (NCI-H226; Table 3): 1730 nM | GI50 (U251; Table 3): 1830 nM | GI50 (IGROV1; Table 3): 1810 nM | GI50 (COLO 205; Table 3): 1980 nM | GI50 (NCI-H322M; Table 3): 10800 nM | GI50 (RPMI-8226; Table 3): 1870 nM | GI50 (UO-31; Table 3): 1230 nM | GI50 (SN12C; Table 3): 2470 nM | GI50 (PC-3; Table 3): 4320 nM | GI50 (OVCAR-4; Table 3): 2770 nM | GI50 (DU-145; Table 3): 1420 nM

C=C1C(=O)O[C@H]2[C@H]1CC/C(Cn1cc(-c3ccsc3)nn1)=C\CC[C@@]1(C)O[C@@H]21 [JVM 4-53]
GI50 (SK-MEL-5; Table 3): 1830 nM | GI50 (MCF7; Table 3): 1680 nM | GI50 (HCT-15; Table 3): 1110 nM | GI50 (NCI-H460; Table 3): 4710 nM | GI50 (A498; Table 3): 2650 nM | GI50 (SF-295; Table 3): 9610 nM | GI50 (786-0; Table 3): 1760 nM | GI50 (NCI/ADR-RES; Table 3): 3790 nM | GI50 (HOP-62; Table 3): 4900 nM | GI50 (OVCAR-3; Table 3): 1060 nM | GI50 (M14; Table 3): 1930 nM | GI50 (CAKI-1; Table 3): 1060 nM | GI50 (KM12; Table 3): 6450 nM | GI50 (LOX IMVI; Table 3): 1280 nM | GI50 (SR; Table 3): 560 nM | GI50 (HL-60(TB); HL-60 (TB), Table 3): 1910 nM | GI50 (HOP-92; Table 3): 1660 nM | GI50 (TK-10; Table 3): 1520 nM | GI50 (A549/ATCC; Table 3): 8610 nM | GI50 (SK-MEL-2; Table 3): 2270 nM | GI50 (HCT-116; Table 3): 1160 nM | GI50 (EKVX; Table 3): 2330 nM | GI50 (OVCAR-8; Table 3): 2960 nM | GI50 (HS 578T; Table 3): 2820 nM | GI50 (NCI-H522; Table 3): 1390 nM | GI50 (T-47D; Table 3): 2030 nM | GI50 (HCC-2998; Table 3): 1840 nM | GI50 (NCI-H226; Table 3): 2090 nM | GI50 (U251; Table 3): 2500 nM | GI50 (IGROV1; Table 3): 1920 nM | GI50 (COLO 205; Table 3): 1450 nM | GI50 (NCI-H322M; Table 3): 10500 nM | GI50 (RPMI-8226; Table 3): 2450 nM | GI50 (UO-31; Table 3): 1350 nM | GI50 (SN12C; Table 3): 2450 nM | GI50 (PC-3; Table 3): 4210 nM | GI50 (OVCAR-4; Table 3): 2480 nM | GI50 (DU-145; Table 3): 1430 nM
